Data as given in the NIST ThermoML archive (doi:10.1021/je901020a).

Assays:
[1] = refractive index (Na D-line) (dimensionless); xn = mol fraction of the nth substance listed; settings: 101 kPa, Liquid, Standard Abbe refractometry
[2] = xn = mol fraction of the nth substance listed; settings: 101 kPa, Liquid; for speed of sound: Pulse-echo method

C1CCCCCCC1 [cyclooctane] + Cc1cccc(C)c1
Settings	mass density, [2] [kg/m3]	refractive index, [1]	speed of sound, [2] [m/s]
298.15 K, x1 = 0.0545	857.4	1.49186	1322
298.15 K, x1 = 0.0993	855.5	1.48961	1324
298.15 K, x1 = 0.2059	851.1	1.4845	1328
298.15 K, x1 = 0.3074	847.4	1.4799	1333
298.15 K, x1 = 0.3933	844.4	1.47623	1338
298.15 K, x1 = 0.5031	841	1.47176	1346
298.15 K, x1 = 0.6002	838.2	1.46806	1353
298.15 K, x1 = 0.6993	835.9	1.46461	1361
298.15 K, x1 = 0.8198	833.5	1.46072	1372
298.15 K, x1 = 0.8909	832.4	1.45869	1379
298.15 K, x1 = 0.9503	831.8	1.45714	1385
298.15 K, x1 = 1	831.5	1.45598	1391
313.15 K, x1 = 0.0506	844.7	1.48423	1260
313.15 K, x1 = 0.0888	843.1	1.48242	1262
313.15 K, x1 = 0.1861	839.3	1.47779	1265
313.15 K, x1 = 0.2924	835.4	1.47308	1270
313.15 K, x1 = 0.3795	832.4	1.46944	1275
313.15 K, x1 = 0.487	829.1	1.46522	1282
313.15 K, x1 = 0.5832	826.4	1.46159	1289
313.15 K, x1 = 0.6823	824	1.45808	1296
313.15 K, x1 = 0.7874	821.9	1.45469	1305
313.15 K, x1 = 0.8879	820.3	1.45169	1315
313.15 K, x1 = 0.9389	819.7	1.45047	1320
313.15 K, x1 = 1	819.2	1.44877	1326

C1CCCCCCC1 [cyclooctane] + Cc1ccccc1C
Settings	mass density, [2] [kg/m3]	refractive index, [1]	speed of sound, [2] [m/s]
298.15 K, x1 = 0.0513	871.8	1.49887	1347
298.15 K, x1 = 0.1015	868.4	1.49595	1348
298.15 K, x1 = 0.2	862.5	1.49039	1349
298.15 K, x1 = 0.3067	856.9	1.48468	1351
298.15 K, x1 = 0.4026	852.2	1.47987	1354
298.15 K, x1 = 0.5037	847.6	1.47508	1358
298.15 K, x1 = 0.6262	842.6	1.46963	1364
298.15 K, x1 = 0.7007	839.9	1.46653	1368
298.15 K, x1 = 0.8028	836.5	1.4626	1375
298.15 K, x1 = 0.8953	833.9	1.45933	1381
298.15 K, x1 = 0.9498	832.5	1.45752	1386
298.15 K, x1 = 1	831.5	1.45598	1391
313.15 K, x1 = 0.0508	859.7	1.49181	1289
313.15 K, x1 = 0.0905	857.3	1.48933	1289
313.15 K, x1 = 0.1697	852.7	1.48503	1289
313.15 K, x1 = 0.2967	845.9	1.47816	1291
313.15 K, x1 = 0.3824	841.6	1.47392	1293
313.15 K, x1 = 0.4839	836.9	1.46911	1296
313.15 K, x1 = 0.5878	832.4	1.46435	1300
313.15 K, x1 = 0.6869	828.6	1.46018	1305
313.15 K, x1 = 0.7892	825.1	1.45617	1310
313.15 K, x1 = 0.8891	822	1.45244	1317
313.15 K, x1 = 0.9368	820.7	1.45072	1321
313.15 K, x1 = 1	819.2	1.44877	1326
